{"source": "patent US20260376283A1", "about": "“A METHOD IMPLEMENTING MORPHOLOGICAL CHANGES OF EXTRACELLULAR ORGANELLE VESICLES SO AS TO EXAMINE THE TRANSPORTING ACTIVITY OF MEMBRANE TRANSPORT PROTEINS AND OTHER RELATED METHODS” (PARIS SCIENCES ET LETTRES, priority 2023, published 2026)", "key": {"[1]": {"system": "ion channel TMEM175 localized on lysosomes or endolysosomes vesicles", "details": "cited from earlier work"}, "[2]": {"system": "ion channel TMEM175 localized on lysosomes or endolysosomes vesicles", "test": "K+ ion channel TMEM175 transporting activity by endolysosome vesicle morphological change (Example 8)", "assay_type": "biochemical", "details": "role: substrate, KCl 100 mM inside, 1 mM outside with 200 mM sucrose", "procedure": "Before starting acquisition, extracellular endolysosome vesicles are charged with K^+ ions thanks to a bath sonicator and an extracellular solution (210 mOsm/L) containing 100 mM of KCl and 10 mM of Hepes, pH 7.2. Then, extracellular endolysosome vesicles are seeded on a glass plate for observation. Before starting acquisition, extravesicular aqueous solution is removed to be changed when starting acquisition.\nOnce the acquisition is started, the extracellular organelle vesicle, held by the micropipette is passed through an extra-vesicular aqueous solution (200 mOsm/L) containing 1 mM of KCl and 200 mM of sucrose. Contacting very small amount of potassium ions with said extracellular organelle vesicle generates a concentration gradient of K^+ between the inside and the outside of the vesicles. […] This innovative process allows to examine the transporting activity of the ion channel TMEM175 localized on lysosomes or endolysosomes vesicles in absence and/or in presence of an antagonist (4-AP) and/or agonist (DCPIB)."}, "[3]": {"system": "giant organelles from the ER", "test": "Giant organelle formation after pre-treatment of cells (ER)", "assay_type": "cell-based", "details": "pre-treatment between 1 and 90 min before swelling", "description": "(§1) According to a particular embodiment of the first process, prior to the generation of giant extracellular organelle vesicles, cells may be treated with molecules to prevent protein degradation, modulate biochemical reactions on organelles, etc., so that giant extracellular organelle vesicles can bear specific biochemical properties. The metabolic conditions and the architecture of cells and its organelles can thus be further modified before step v), by chemicals and/or by modifying the expression level of proteins impacting the architecture of cells and/or their organelles and/or the metabolic conditions. […] These manipulations enable controlling the size of the recovered giant extracellular organelle vesicles and their contact: tuning the surface-to-volume ratio, prior to the osmotic swelling, impacting the future recovered giant organelle size, with adapted osmotic swelling. […]"}, "[4]": {"system": "giant extracellular organelles vesicles coming from autophagosomes", "test": "Giant organelle formation after pre-treatment of cells (autophagosomes)", "assay_type": "cell-based", "details": "added before swelling and extraction", "description": "as §1"}, "[5]": {"system": "giant extracellular organelles vesicles from endosome, lysosome, autolysosome and multivesicular body", "test": "Giant organelle formation after pre-treatment of cells (endosome, lysosome, autolysosome, multivesicular body)", "assay_type": "cell-based", "details": "added between 12 to 24 hours before swelling", "description": "as §1"}, "[6]": {"system": "ion pump SERCA localized on Endoplasmic Reticulum vesicles", "test": "Ca2+ pump transporting activity by morphological change (deflation/re-swelling) of ER extracellular organelle vesicles (Example 1)", "assay_type": "biochemical", "details": "role: substrate", "procedure": "An initial HKM buffer was prepared with 50 mM Hepes (known as 2-[4-(2-hydroxyethyl)piperazin-1-yl]ethanesulfonic acid), 120 mM potassium acetate, and 1 mM MgCl2 (in Milli-Q water) at pH 7.4. Said initial HKM buffer has an osmolarity of 280±15 mOsm/L.\nThen, a membrane tension is applied on cells so as to produce extracellular organelle vesicles without lysing them. At that step, the extracellular organelle vesicles are released (or produced) thanks to the lysis and the removal of the plasma membrane. The membrane tension is carried out by micro-manipulation of the cells under confocal microscope thanks to a micropipette aspiration technique. Micropipette radius is around 1 μm. Thanks to a slight aspiration, a bilayer tongue of the plasma membrane was sucked into the micropipette. The aspiration is then increased at an approximate rate of 10 mbar/min, causing a proportional increase in the bilayer surface tension. At a certain applied tension (e.g. surface tension<0.75 mN/m), the plasma membrane ruptured thanks to a pore opening in the plasma membrane and the extracellular organelle vesicles are released (or extracted).\nAfter extraction, one or more extracellular organelle vesicles are isolated using a micropipette. The micropipettes are used to hold a vesicle during the following methods of the present invention. Before the addition of molecules (ions, sugars or drug molecules), an acquisition is launched to observe the initial size of the vesicle.\nOnce the acquisition is started, the extracellular organelle vesicle, held by the micropipette is passed through an aqueous solution containing CaCl2 (60 mOsm/L) and ATP (100 μM). Contacting calcium ions with said extracellular organelle vesicle increases the osmolarity of the extravesicular aqueous medium. […] This innovative process allows to examine the transporting activity of the ion pump SERCA localized on Endoplasmic Reticulum vesicles.\nFIG. 1 A) represents an extracellular organelle vesicle of endoplasmic reticulum (ER) which is maintained thanks to a micropipette into a HKM diluted buffer (20 mOsm/L) as an extravesicular aqueous medium. This extracellular organelle vesicle has been isolated thanks to an ER resident protein (KDEL), over-expressed by COS7 cells, before organelle vesicles extraction.\nAt t=0s, CaCl2 (60 mOsm/L) and ATP (100 μM) were added. At t=20s, the ER extracellular organelle vesicle is deflated: it reached its minimum volume (Vi1) and its associated maximum fluorescence signal (Fl1).\nOnce the acquisition is started, the ER extracellular organelle vesicle, held by the micropipette is passed through an aqueous solution containing sucrose (60 mOsm). […] Sucrose can thus be used as a control or reference in the method of the present invention."}, "[7]": {"system": "SERCA pump", "test": "Screening of candidate compounds modulating SERCA activity by ER vesicle re-swelling (Example 4)", "assay_type": "biochemical", "details": "role: inhibitor; for re-swelling process in presence of inhibitor: thapsigargin 10 μM in DMSO, 10 min, CaCl2 60 mOsm/L, ATP 1 mM / 100 μM, compared to vesicle not incubated", "procedure": "Once the ER extracellular organelle vesicles are extracted, thapsigargin (10 μM) in DMSO, is added to the medium. […] After 10 minutes of incubation with thapsigargin, and once the acquisition is started, the extracellular organelle vesicle, held by the micropipette is passed through an aqueous solution containing CaCl2 (60 mOsm/L) and ATP (1 mM).\nFIG. 6 A) represents an ER extracellular organelle vesicle maintained thanks to a micropipette into a HKM diluted buffer (20 mOsm/L). This extracellular organelle vesicle has been isolated thanks to an ER resident protein, over-expressed by COS7 cells, before organelle vesicles extraction. This extracellular organelle vesicle was incubated with thapsigargin at 10 μM during 10 min.\nAt t=0s, CaCl2 (60 mOsm/L) and ATP (100 μM) were added. Dotted line circles all correspond to the size of the extracellular organelle vesicle before the beginning of the process."}, "[8]": {"system": "SERCA pump", "details": "role: inhibitor; cited from earlier work"}}, "note": "“Also recorded” adds a separate entry of the source. Where two headings read alike, the source gives them in different places.", "data": [{"smiles": "Nc1ccncc1", "note": "[4-AP]", "values": [{"measurement": "mode of action on TMEM175", "setting": "[1]; role: inhibitor", "result": "antagonist"}]}, {"smiles": "CCCCC1(C2CCCC2)Cc2cc(OCCCC(=O)O)c(Cl)c(Cl)c2C1=O", "note": "(stereo not shown) [DCPIB]", "values": [{"measurement": "mode of action on TMEM175", "setting": "[1]; role: activator", "result": "agonist"}]}, {"smiles": "[Cl-].[K+]", "note": "[KCl]", "values": [{"measurement": "deflation of endolysosome vesicle", "setting": "[2]", "result": "the vesicle deflates in a few seconds"}, {"measurement": "re-swelling process of endolysosome vesicle", "setting": "[2]; following minutes", "result": "a re-swelling process is not observed"}]}, {"smiles": "C/C1=C/C(=O)O[C@@H]2C[C@@H](CC[C@H](C)/C=C\\C=C\\CC1)O[C@@](O)([C@@H]1CSC(=O)N1)C2", "note": "[Latrunculin A]", "values": [{"measurement": "effect on giant organelle formation from the ER", "setting": "[3]", "result": "allows the formation of bigger giant organelles from the ER"}]}, {"smiles": "CO/C1=C\\C(C)=C\\[C@@H](C)[C@@H](O)[C@@H](C)C/C(C)=C/C=C/[C@H](OC)[C@@H]([C@@H](C)[C@@H](O)[C@H](C)C2(O)C[C@@H](O)[C@H](C)[C@@H](C(C)C)O2)OC1=O", "note": "(stereo partly shown) [bafylomicin]", "values": [{"measurement": "effect on giant extracellular organelle vesicles from autophagosomes", "setting": "[4]", "result": "allows to obtain more giant extracellular organelles vesicles coming from autophagosomes"}]}, {"smiles": "COC(=O)Nc1nc2ccc(C(=O)c3cccs3)cc2[nH]1", "note": "[nocodazole]", "values": [{"measurement": "effect on giant organelle formation from the ER", "setting": "[3]", "result": "allows the formation of bigger giant organelles from the ER"}]}, {"smiles": "CO[C@H]1C[C@@H]2CC[C@@H](C)[C@@](O)(O2)C(=O)C(=O)N2CCCC[C@H]2C(=O)O[C@H]([C@H](C)C[C@@H]2CC[C@@H](O)[C@H](OC)C2)CC(=O)[C@H](C)/C=C(\\C)[C@@H](O)[C@@H](OC)C(=O)[C@H](C)C[C@H](C)/C=C/C=C/C=C/1C", "note": "[rapamycin]", "values": [{"measurement": "effect on giant extracellular organelle vesicle formation", "setting": "[5]", "result": "allows to form bigger giant extracellular organelles vesicles"}]}, {"smiles": "OC[C@H]1O[C@@](CO)(O[C@H]2O[C@H](CO)[C@@H](O)[C@H](O)[C@H]2O)[C@@H](O)[C@@H]1O", "note": "[sucrose]", "values": [{"measurement": "re-swelling process of vesicle", "setting": "[6]; 60 mOsm/L, following minutes, CaCl2 with ATP (100 μM), sucrose as control", "result": "no re-swelling is observed; also recorded: no re-swelling process is visible"}, {"measurement": "deflation of vesicle on contacting", "setting": "[6]; CaCl2 60 mOsm/L with ATP (100 μM), or sucrose 60 mOsm without ATP stated, vesicle internal 20 mOsm/L, COS7 ER vesicle", "result": "deflates in a few seconds"}, {"measurement": "transport inside the ER extracellular organelle vesicle", "setting": "[6]; sucrose 60 mOsm, FIG. 2", "result": "not transported inside the ER extracellular organelle vesicle"}]}, {"smiles": "C/C=C(/C)C(=O)O[C@H]1C(C)=C2[C@H]([C@@H]1OC(=O)CCCCCCC)[C@@](C)(OC(C)=O)C[C@H](OC(=O)CCC)[C@@]1(O)[C@H]2OC(=O)[C@@]1(C)O", "note": "[thapsigargin]", "values": [{"measurement": "Vf/Vi1 and Vf/Vi versus reference ratio", "setting": "[7]; reference ratio obtained without thapsigargin", "result": "Vf/Vi1<Vf,ref/Vi1,ref, and Vf/Vi<Vf,ref/Vi,ref"}, {"measurement": "re-swelling process in presence of inhibitor", "setting": "[7]", "result": "the reswelling process is decreased or not present"}, {"measurement": "re-swelling process in presence of inhibitor", "setting": "[7]; listed as thaspigargin", "result": "the re-swelling process is almost off"}, {"measurement": "effect on the transporting activity of SERCA with respect to Ca^2+", "setting": "[7]; thapsigargin 10 μM, FIGS. 1 and 6", "result": "inhibitory effect"}, {"measurement": "known activity on the SERCA pump", "setting": "[8]", "result": "known inhibitor of the SERCA pump"}]}]}
